In patent publication US5948750A, “Conjugates useful in the treatment of prostate cancer” (priority 1997, dated 1999):
Where two headings read alike, the source gives them in different places. Square brackets hold non-standard residues; d marks the D form. Peptide text beside a SMILES is read from it. * marks the point of attachment. Doxorubicin(3'-N) = COc1cccc2c1C(=O)c1c(O)c3c(c(O)c1C2=O)C[C@@](O)(C(=O)CO)C[C@@H]3O[C@H]1C[C@H](N*)[C@H](O)[C@H](C)O1; Decanoyl(3,6,9-trioxa) = COCCOCCOCC(=O)*; Hyp = O=C(O)[C@@H]1C[C@@H](O)CN1; Chg = N[C@H](C(=O)O)C1CCCCC1; ΔPro = O=C(O)[C@@H]1C=CCN1

Tests used:
[1] = biological target: T1, free PSA (Homo sapiens, UniProt P07288); format: biochemical; settings: for Time to 50% Substrate Cleavage by PSA: free psa; for Substrate cleavage by PSA at 3 hours: oligopeptide to PSA molar ratio 100 to 1
T1 construct: required for 50% cleavage of the noted oligopeptides with enzymatically active free PSA
Procedure: The oligopeptides prepared as described in Example 1 were individually dissolved in PSA digestion buffer (12 mM tris(hydroxymethyl)-aminomethane pH 8.0, 25 mM NaCl, 0.5 mM CaCl2) and the solution added to PSA at a molar ration of 100 to 1. Alternatively, the PSA digestion buffer utilized is 50 mM tris(hydroxymethyl)-aminomethane pH 7.4, 140 mM NaCl. The reaction is quenched after various reaction times by the addition of trifluoroacetic acid (TFA) to a final 1% (volume/volume). Alternatively the reaction is quenched with 10 mM ZnCl2. The quenched reaction was analyzed by HPLC on a reversed-phase C18 column using an aqueous 0.1% TFA/acetonitrile gradient. […] Oligopeptides containing free amine moieties (ie. comprising hArg, Orn, Lys and or 3PAL) were tested as TFA salts. All other oligopeptides were tested as neutral compounds.

[2] = biological target: T1, free PSA; assay: Recognition of oligopeptide-doxorubicin conjugates by free PSA (HPLC cleavage assay); format: biochemical; settings: conjugate to PSA molar ratio 100 to 1; enzymatically active free PSA
Procedure: The conjugates prepared as described in Examples 3-5 were individually dissolved in PSA digestion buffer (12 mM tris(hydroxymethyl)-aminomethane pH 8.0, 25 mM NaCl, 0.5 mM CaCl2) and the solution added to PSA at a molar ration of 100 to 1. Alternatively, the PSA digestion buffer utilized is 50 mM tris(hydroxymethyl)-aminomethane pH 7.4, 140 mM NaCl. The reaction is quenched after various reaction times by the addition of trifluoroacetic acid (TFA) to a final 1% (volume/volume). Alternatively the reaction is quenched with 10 mM ZnCl2. The quenched reaction was analyzed by HPLC on a reversed-phase C18 column using an aqueous 0.1% TFA/acetonitrile gradient. […] If no salt is indicated for the conjugate, the free conjugate was tested. The oligopeptide-cytotoxic agent conjugates described in Examples 4 and 5 were assessed for the amount of time (in minutes) required for 50% cleavage of the oligopeptide with enzymatically active free PSA and 50% cleavage occurred in less than 2 hours for those conjugates.

[3] = system: DuPRO cells; assay: In vitro cytotoxicity of peptidyl derivatives of doxorubicin, Alamar Blue assay, DuPRO; format: cell-based; settings: 72 HRS, read-out: DUPRO Cell Kill in 72 HRS EC 50
Procedure: (§1) The cytotoxicities of the cleaveable oligopeptide-doxorubicin conjugates, prepared as described in Examples 3 and 4, against a line of cells which is known to be killed by unmodified doxorubicin were assessed with an Alamar Blue assay. Specifically, cell cultures of LNCap prostate tumor cells (which express enzymatically active PSA) or DuPRO cells in 96 well plates was diluted with medium (Dulbecco's […]-α[MEM-α]) containing various concentrations of a given conjugate (final plate well volume of 200 μl). The cells were incubated for 3 days at 37° C., 20 μl of Alamar Blue is added to the assay well. The cells were further incubated and the assay plates were read on a EL-310 ELISA reader at the dual wavelengths of 570 and 600 nm at 4 and 7 hours after addition of Alamar Blue. Relative percentage viability at the various concentration of conjugate tested was then calculated versus control (no conjugate) cultures. If no salt is indicated, the free conjugate was tested.

[4] = system: LNCap prostate tumor cells (which express enzymatically active PSA); assay: In vitro cytotoxicity of peptidyl derivatives of doxorubicin, Alamar Blue assay, LNCaP; format: cell-based; settings: 72 HRS (3 days at 37° C.), read-out: LNCaP Cell Kill in 72 HRS EC 50
Procedure: as §1

T1 sequence (P07288 25-261): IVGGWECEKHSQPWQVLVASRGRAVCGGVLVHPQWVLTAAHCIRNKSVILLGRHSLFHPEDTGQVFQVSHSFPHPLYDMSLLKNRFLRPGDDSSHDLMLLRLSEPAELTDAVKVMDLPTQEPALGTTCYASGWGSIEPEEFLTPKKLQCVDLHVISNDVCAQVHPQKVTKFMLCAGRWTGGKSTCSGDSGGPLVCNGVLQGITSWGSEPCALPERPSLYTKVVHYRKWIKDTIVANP

| Compound | Time to 50% Substrate Cleavage by PSA [1] [min] | Substrate cleavage by PSA at 3 hours [1] [%] | Time to 50% Substrate Cleavage by PSA [2] [min] | further results |
| --- | --- | --- | --- | --- |
| CC(=O)N1C[C@H](O)C[C@H]1C(=O)N[C@@H](C)C(=O)N[C@@H](CO)C(=O)N[C@H](C(=O)N[C@@H](CCC(N)=O)C(=O)N[C@@H](CO)C(=O)N[C@@H](CC(C)C)C(=O)O)C1CCCCC1 [Ac-(4-trans-L-Hyp)ASChgQ-SL-acid, [N-Ac-(4-trans-L-Hyp)]-Ala-Ser-Chg-Gln-Ser-Leu-OH] (Ac-[Hyp]AS[Chg]QSL-OH) | 75 |  |  |  |
| CC(=O)N1C[C@H](O)C[C@H]1C(=O)N[C@H](C(=O)N[C@@H](CCC(N)=O)C(=O)N[C@@H](CO)C(=O)N[C@@H](CO)C(=O)N[C@@H](CO)C(=O)N[C@@H](CC(C)C)C(=O)O)C1CCCCC1 [Ac-(4-trans-L-Hyp)ChgQ-SSSL-acid] (Ac-[Hyp][Chg]QSSSL-OH) |  | 0 |  |  |
| COCCOCCOCC(=O)N1C[C@H](O)C[C@H]1C(=O)N[C@@H](C)C(=O)N[C@@H](CO)C(=O)N[C@H](C(=O)N[C@@H](CCC(N)=O)C(=O)N[C@@H](CO)C(=O)N[C@@H](CC(C)C)C(=O)N[C@H]1C[C@H](O[C@H]2C[C@](O)(C(=O)CO)Cc3c(O)c4c(c(O)c32)C(=O)c2c(OC)cccc2C4=O)O[C@@H](C)[C@H]1O)C1CCCCC1 [PEG(2)-(4-trans-L-Hyp)ASChgQ-SL-DOX (3')] ({Decanoyl(3,6,9-trioxa)}-[Hyp]AS[Chg]QSL-{Doxorubicin(3'-N)}) |  |  | 20 |  |
| CC(=O)N1C[C@H](O)C[C@H]1C(=O)N[C@@H](C)C(=O)N[C@@H](CO)C(=O)N[C@H](C(=O)N[C@@H](CCC(N)=O)C(=O)N[C@@H](CO)C(=O)N1Cc2ccccc2C[C@H]1C(=O)O)C1CCCCC1 [Ac-(4-trans-L-Hyp)ASChgQ-S(TIC)-acid] |  | 16 |  |  |
| COc1cccc2c1C(=O)c1c(O)c3c(c(O)c1C2=O)C[C@@](O)(C(=O)CO)C[C@@H]3O[C@H]1C[C@H](NC(=O)[C@H](CC(C)C)NC(=O)[C@H](CO)NC(=O)[C@H](CCC(N)=O)NC(=O)[C@@H](NC(=O)[C@H](CO)NC(=O)[C@H](C)NC(=O)[C@@H]2C[C@@H](O)CN2C(C)=O)C2CCCCC2)[C@H](O)[C@H](C)O1 (relative stereo) [Ac-(4-trans-L-Hyp)ASChgQ-SL-DOX (3'), [N-Ac-(4-trans-L-Hyp)]-Ala-Ser-Chg-Gln-Ser-Leu-Dox] |  |  | 20 | EC50 [3]: 90 µM; EC50 [4]: 4.5 µM |
| CC(=O)N1CC=C[C@H]1C(=O)N[C@@H](C)C(=O)N[C@@H](CO)C(=O)N[C@H](C(=O)N[C@@H](CCC(N)=O)C(=O)N[C@@H](CO)C(=O)N[C@@H](CC(C)C)C(=O)O)C1CCCCC1 [Ac-(Dehydro-Pro)-ASChgQ-SL-acid] (Ac-[ΔPro]AS[Chg]QSL-OH) |  | 28 |  |  |
| COc1cccc2c1C(=O)c1c(O)c3c(c(O)c1C2=O)C[C@@](O)(C(=O)CO)C[C@@H]3O[C@H]1C[C@H](NC(=O)[C@H](CC(C)(C)C)NC(=O)[C@H](CO)NC(=O)[C@H](CCC(N)=O)NC(=O)[C@@H](NC(=O)[C@H](CO)NC(=O)[C@H](C)NC(=O)[C@@H]2C[C@@H](O)CN2C(C)=O)C2CCCCC2)[C@H](O)[C@H](C)O1 |  |  | 25 |  |

Now from value to compound, other results behind:

| Time to 50% Substrate Cleavage by PSA [1] [min] | Substrate cleavage by PSA at 3 hours [1] [%] | Compound | Time to 50% Substrate Cleavage by PSA [2] [min] | further results |
| --- | --- | --- | --- | --- |
| 120 |  | CC(=O)N1CCC[C@H]1C(=O)N[C@@H](CO)C(=O)N[C@@H](CO)C(=O)N[C@H](C(=O)N[C@@H](CCC(N)=O)C(=O)N[C@@H](CO)C(=O)N[C@H](C(=O)O)C(C)C)C1CCCCC1 [Ac-PSSChgQ-SV-acid] |  |  |
| 150 |  | CC(=O)N1CCC[C@H]1C(=O)N[C@@H](C)C(=O)N[C@@H](CO)C(=O)N[C@H](C(=O)N[C@@H](CCC(N)=O)C(=O)N[C@@H](CO)C(=O)N[C@@H](CC(C)C)C(=O)O)C1CCCCC1 [Ac-PASChgQ-SL-acid] (Ac-PAS[Chg]QSL-OH) |  |  |
|  | 44 | COCCOCCOCC(=O)N1C[C@H](O)C[C@H]1C(=O)N[C@@H](C)C(=O)N[C@@H](CO)C(=O)N[C@H](C(=O)N[C@@H](CCC(N)=O)C(=O)N[C@@H](CO)C(=O)N[C@@H](CC(C)C)C(=O)O)C1CCCCC1 [PEG(2)-(4-trans-L-Hyp)-ASChgQ-SL-acid] ({Decanoyl(3,6,9-trioxa)}-[Hyp]AS[Chg]QSL-OH) |  |  |
